The values that follow come from article PMC9329436, “Optimization of the 4-anilinoquin(az)oline scaffold as epidermal growth factor receptor (EGFR) inhibitors for chordoma utilizing a toxicology profiling assay platform” (Scientific Reports, 2022).

Read-outs that look alike come from different tables or passages of the source.

Common to all, as to type: biochemical
The target of test [1] is T1, 320 wild-type protein kinases (Homo sapiens, UniProt O43781).
T1 sequence (O43781 1-588): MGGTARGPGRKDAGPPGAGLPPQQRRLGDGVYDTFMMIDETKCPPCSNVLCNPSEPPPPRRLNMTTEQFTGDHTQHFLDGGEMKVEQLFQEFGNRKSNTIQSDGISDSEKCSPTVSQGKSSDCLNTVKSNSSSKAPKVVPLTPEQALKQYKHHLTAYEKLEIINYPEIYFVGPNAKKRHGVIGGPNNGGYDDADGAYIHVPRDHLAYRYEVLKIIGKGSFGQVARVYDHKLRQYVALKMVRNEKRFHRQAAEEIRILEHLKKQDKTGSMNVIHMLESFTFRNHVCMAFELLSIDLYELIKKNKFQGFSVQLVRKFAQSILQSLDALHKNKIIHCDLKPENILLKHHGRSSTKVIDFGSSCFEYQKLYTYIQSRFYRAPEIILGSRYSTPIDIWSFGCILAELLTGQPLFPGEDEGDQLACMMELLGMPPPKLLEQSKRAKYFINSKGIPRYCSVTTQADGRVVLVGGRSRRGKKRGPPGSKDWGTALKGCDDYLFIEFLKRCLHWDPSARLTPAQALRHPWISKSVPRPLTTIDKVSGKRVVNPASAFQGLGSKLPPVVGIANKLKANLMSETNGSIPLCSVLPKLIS
The note with it: singlicate. The source says:
(§1) Table S4. Profiling of two compounds at two concentrations against 320 wild-type protein kinases; singlicate measurement; Residual activities (% of control).

The target of test [2] is 320 wild-type protein kinases (Homo sapiens, UniProt O75116). The note with it: kinase ROCK2, singlicate.
Excerpt: as §1

Test [3] has as its target 320 wild-type protein kinases (Homo sapiens, UniProt O75676). The note with it: kinase RPS6KA4, singlicate.
Excerpt: as §1

Test [4] concerns the target T2, 320 wild-type protein kinases (Homo sapiens, UniProt P43403).
T2 sequence (P43403 1-619): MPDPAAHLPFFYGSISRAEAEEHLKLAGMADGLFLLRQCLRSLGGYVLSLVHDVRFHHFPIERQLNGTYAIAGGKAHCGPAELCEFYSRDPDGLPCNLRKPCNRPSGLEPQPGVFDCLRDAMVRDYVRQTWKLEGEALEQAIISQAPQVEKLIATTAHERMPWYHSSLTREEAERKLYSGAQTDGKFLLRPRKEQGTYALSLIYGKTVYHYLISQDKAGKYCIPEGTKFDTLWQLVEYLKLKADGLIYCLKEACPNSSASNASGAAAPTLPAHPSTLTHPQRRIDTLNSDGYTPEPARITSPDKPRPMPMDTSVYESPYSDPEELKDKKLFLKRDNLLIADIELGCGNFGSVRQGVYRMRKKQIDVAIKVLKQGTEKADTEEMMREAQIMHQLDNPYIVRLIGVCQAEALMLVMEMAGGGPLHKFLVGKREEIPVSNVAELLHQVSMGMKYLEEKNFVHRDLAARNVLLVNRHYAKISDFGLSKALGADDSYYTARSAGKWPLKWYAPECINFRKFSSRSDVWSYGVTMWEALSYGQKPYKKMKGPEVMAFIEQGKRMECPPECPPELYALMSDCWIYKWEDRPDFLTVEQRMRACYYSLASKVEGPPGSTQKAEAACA
Particulars: kinase ZAP70, singlicate.
Excerpt: as §1

For test [5], the target named is 320 wild-type protein kinases (Homo sapiens, UniProt Q5S007). Particulars: singlicate.
Excerpt: as §1

For test [6], the target named is 320 wild-type protein kinases (Homo sapiens, UniProt Q8N5S9). The note with it: singlicate.
Excerpt: as §1

Test [7] concerns the target T3, 320 wild-type protein kinases (Homo sapiens, UniProt Q99640).
T3 sequence (Q99640 1-499): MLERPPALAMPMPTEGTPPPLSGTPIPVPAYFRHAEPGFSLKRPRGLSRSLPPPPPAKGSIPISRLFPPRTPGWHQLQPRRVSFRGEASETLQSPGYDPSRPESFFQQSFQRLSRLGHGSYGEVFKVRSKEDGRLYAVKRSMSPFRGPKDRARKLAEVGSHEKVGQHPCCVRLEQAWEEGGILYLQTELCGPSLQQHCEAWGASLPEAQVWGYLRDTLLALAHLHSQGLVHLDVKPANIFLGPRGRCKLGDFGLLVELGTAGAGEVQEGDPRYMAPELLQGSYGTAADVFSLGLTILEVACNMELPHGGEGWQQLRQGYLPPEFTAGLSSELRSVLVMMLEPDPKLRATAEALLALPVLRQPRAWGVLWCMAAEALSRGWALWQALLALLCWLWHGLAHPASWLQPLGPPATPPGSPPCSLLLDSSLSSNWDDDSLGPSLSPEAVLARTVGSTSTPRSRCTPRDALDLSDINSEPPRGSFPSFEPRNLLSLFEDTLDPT
The note with it: singlicate.
Excerpt: as §1

The target of test [8] is T4, 320 wild-type protein kinases (Homo sapiens, UniProt Q99986).
T4 sequence (Q99986 1-396): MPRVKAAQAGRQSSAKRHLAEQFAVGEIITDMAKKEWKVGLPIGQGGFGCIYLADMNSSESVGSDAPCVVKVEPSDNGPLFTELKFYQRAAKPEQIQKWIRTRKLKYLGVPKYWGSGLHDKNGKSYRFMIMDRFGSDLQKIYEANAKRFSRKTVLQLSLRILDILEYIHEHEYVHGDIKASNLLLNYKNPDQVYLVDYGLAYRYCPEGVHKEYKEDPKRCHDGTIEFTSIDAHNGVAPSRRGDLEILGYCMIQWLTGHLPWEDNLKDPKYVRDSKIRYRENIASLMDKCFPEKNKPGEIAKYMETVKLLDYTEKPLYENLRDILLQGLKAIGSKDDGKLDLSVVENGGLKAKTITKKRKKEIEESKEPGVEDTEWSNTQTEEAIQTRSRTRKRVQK
The note with it: kinase VRK1, singlicate.
Excerpt: as §1

The target in test [9] is 320 wild-type protein kinases (Homo sapiens, UniProt Q9UIK4). Particulars: singlicate.
Excerpt: as §1

Sequence of 320 wild-type protein kinases (Homo sapiens, UniProt Q8N5S9) (Q8N5S9 whole entry): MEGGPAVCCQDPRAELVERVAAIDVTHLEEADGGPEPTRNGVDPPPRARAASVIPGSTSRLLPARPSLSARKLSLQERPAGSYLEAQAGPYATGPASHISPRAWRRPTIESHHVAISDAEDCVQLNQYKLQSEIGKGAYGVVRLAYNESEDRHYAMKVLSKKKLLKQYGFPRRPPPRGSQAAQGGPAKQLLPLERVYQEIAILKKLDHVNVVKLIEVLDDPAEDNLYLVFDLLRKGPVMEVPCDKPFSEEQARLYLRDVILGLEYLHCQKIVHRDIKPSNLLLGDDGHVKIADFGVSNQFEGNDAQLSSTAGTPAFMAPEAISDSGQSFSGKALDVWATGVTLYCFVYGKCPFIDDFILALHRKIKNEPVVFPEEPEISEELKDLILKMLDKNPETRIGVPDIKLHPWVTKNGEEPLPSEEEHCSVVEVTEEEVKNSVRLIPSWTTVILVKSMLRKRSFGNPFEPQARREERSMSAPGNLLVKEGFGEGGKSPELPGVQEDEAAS
Sequence of 320 wild-type protein kinases (Homo sapiens, UniProt Q5S007) (Q5S007 whole entry): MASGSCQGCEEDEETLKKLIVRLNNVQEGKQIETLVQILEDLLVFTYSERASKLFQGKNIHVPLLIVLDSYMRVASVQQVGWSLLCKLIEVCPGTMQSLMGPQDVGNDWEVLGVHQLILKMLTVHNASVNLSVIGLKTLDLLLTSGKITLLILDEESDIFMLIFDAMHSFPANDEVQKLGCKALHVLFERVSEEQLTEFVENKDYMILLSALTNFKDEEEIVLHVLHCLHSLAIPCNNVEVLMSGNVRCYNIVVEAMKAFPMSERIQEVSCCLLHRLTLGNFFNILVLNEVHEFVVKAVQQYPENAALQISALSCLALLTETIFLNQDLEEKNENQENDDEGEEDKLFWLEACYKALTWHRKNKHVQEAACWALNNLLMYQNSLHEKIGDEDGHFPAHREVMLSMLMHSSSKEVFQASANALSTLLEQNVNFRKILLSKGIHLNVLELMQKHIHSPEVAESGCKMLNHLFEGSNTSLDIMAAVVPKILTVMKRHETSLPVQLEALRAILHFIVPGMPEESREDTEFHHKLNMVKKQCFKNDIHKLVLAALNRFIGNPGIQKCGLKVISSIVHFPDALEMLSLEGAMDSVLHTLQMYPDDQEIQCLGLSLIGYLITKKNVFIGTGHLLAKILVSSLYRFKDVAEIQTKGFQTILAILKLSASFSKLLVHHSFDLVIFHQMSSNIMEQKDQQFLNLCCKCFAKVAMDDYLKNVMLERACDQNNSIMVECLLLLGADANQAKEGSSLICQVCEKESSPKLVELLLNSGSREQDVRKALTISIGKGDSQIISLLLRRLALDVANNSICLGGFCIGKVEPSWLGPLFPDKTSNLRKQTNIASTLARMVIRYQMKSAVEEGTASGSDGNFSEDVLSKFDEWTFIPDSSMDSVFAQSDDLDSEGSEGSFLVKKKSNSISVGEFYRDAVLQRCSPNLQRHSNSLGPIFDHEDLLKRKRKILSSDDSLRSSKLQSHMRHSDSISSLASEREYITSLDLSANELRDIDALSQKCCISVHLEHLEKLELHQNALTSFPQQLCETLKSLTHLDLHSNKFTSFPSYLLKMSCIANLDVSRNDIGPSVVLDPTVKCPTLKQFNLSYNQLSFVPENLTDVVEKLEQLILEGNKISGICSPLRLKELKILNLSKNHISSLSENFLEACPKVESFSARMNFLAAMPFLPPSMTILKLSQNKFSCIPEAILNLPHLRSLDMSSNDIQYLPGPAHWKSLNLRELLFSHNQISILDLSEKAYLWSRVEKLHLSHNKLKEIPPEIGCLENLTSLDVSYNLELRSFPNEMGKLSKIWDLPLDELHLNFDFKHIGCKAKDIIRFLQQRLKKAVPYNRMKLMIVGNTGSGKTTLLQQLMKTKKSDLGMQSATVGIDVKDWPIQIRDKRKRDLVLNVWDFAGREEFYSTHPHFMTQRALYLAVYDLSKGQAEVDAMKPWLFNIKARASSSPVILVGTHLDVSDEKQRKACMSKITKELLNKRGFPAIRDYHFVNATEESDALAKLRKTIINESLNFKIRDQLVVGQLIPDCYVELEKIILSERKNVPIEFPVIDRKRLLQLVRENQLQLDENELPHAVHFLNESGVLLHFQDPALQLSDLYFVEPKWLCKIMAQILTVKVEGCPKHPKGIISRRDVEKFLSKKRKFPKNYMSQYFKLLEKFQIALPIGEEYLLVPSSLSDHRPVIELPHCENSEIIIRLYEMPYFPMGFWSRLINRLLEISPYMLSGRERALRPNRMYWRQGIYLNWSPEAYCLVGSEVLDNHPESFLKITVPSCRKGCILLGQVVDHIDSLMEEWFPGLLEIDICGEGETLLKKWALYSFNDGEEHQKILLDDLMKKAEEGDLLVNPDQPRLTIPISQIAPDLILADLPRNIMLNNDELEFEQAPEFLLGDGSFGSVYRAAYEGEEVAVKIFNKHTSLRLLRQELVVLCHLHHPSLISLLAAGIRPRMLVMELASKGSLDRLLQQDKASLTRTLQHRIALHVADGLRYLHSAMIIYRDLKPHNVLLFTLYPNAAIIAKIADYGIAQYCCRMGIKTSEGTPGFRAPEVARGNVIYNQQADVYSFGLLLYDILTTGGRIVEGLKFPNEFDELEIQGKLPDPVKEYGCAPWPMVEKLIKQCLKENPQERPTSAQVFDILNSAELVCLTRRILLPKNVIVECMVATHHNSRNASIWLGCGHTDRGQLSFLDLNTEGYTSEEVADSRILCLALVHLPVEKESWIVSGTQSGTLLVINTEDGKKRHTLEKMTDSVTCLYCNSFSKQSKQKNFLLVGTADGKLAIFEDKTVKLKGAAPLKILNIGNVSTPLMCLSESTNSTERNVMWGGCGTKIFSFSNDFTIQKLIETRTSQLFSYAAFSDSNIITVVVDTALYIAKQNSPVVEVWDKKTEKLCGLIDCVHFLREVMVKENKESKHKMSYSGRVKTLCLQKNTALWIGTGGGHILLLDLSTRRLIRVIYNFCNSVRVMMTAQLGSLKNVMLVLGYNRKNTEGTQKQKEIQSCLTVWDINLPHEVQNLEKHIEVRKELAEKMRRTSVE
Sequence of 320 wild-type protein kinases (Homo sapiens, UniProt Q9UIK4) (Q9UIK4 whole entry): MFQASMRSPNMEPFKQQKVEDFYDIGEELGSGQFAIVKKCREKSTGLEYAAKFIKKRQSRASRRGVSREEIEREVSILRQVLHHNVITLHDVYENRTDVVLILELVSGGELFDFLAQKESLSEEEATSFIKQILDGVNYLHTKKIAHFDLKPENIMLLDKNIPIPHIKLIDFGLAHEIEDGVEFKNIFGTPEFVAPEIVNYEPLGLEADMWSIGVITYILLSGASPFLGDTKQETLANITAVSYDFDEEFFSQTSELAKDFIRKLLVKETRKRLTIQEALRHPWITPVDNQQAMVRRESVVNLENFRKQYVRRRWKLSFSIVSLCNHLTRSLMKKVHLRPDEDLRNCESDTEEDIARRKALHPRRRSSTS
Sequence of 320 wild-type protein kinases (Homo sapiens, UniProt O75676) (O75676 whole entry): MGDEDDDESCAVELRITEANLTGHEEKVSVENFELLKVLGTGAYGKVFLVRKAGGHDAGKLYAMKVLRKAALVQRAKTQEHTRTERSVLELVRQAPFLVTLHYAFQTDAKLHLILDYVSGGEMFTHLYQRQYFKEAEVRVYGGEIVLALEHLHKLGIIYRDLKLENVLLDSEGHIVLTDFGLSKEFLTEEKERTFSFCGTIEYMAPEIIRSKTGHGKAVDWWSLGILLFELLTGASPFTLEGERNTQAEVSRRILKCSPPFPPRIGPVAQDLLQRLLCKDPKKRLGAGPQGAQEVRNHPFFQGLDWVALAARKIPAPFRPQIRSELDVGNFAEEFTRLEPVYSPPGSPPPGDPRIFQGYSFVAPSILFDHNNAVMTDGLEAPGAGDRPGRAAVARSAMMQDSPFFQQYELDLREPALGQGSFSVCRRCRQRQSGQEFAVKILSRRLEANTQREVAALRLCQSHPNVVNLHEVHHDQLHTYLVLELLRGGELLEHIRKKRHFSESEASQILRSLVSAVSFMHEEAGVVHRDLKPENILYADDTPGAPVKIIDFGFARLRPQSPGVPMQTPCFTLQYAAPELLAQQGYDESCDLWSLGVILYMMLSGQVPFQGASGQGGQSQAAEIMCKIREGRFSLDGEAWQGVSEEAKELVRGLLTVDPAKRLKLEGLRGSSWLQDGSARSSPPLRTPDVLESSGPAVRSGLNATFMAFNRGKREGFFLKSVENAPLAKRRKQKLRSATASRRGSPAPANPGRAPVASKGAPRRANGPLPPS

As to `C#Cc1cc(Nc2ncnc3cc(OC)c(OC)cc23)ccc1Cl` [Compound 45], the Residual activity is listed as 69 % of control in [1] (DYRK3, 1.0E-06 M); 97 % of control in test [1] (DYRK3, 1.0E-07 M); 81 % of control in test [5] (LRRK2, 1.0E-06 M); 99 % of control in test [5] (LRRK2, 1.0E-07 M); 110 % of control in [6] (CAMKK1, 1.0E-06 M); 91 % of control in [6] (CAMKK1, 1.0E-07 M). For the same compound, the Residual activity is on record as 95 % of control in test [7] (PKMYT1, 1.0E-06 M); 114 % of control in test [7] (PKMYT1, 1.0E-07 M); 101 % of control in test [9] (DAPK2, 1.0E-06 M); 132 % of control in test [9] (DAPK2, 1.0E-07 M). Moreover, the “Residual activity, ROCK2” value is listed as 84 % of control in test [2] (assay conc. 1.0E-06 M) and 90 % of control in test [2] (assay conc. 1.0E-07 M). Further, the “Residual activity, RPS6KA4” value in test [3] (assay conc. 1.0E-06 M) is 83 % of control; in test [3] (assay conc. 1.0E-07 M) it was 95 % of control. In addition, the figures for the “Residual activity, ZAP70” value in [4] (assay conc. 1.0E-06 M) and in test [4] (assay conc. 1.0E-07 M) were 104 % of control and 100 % of control, respectively. For the same compound, the “Residual activity, VRK1” value in test [8] (assay conc. 1.0E-06 M) is reported as 93 % of control; in test [8] (assay conc. 1.0E-07 M), 104 % of control.

Regarding `C#Cc1cc(Nc2ncnc3cc(I)ccc23)ccc1Cl` [Compound 41], the Residual activity is reported as 81 % of control in test [1] (DYRK3, 1.0E-06 M); 96 % of control in test [1] (DYRK3, 1.0E-07 M); 87 % of control in [5] (LRRK2, 1.0E-06 M); 88 % of control in test [5] (LRRK2, 1.0E-07 M); 84 % of control in test [6] (CAMKK1, 1.0E-06 M); 87 % of control in test [6] (CAMKK1, 1.0E-07 M). Also, the Residual activity in test [7] (PKMYT1, 1.0E-06 M) is reported as 79 % of control; in test [7] (PKMYT1, 1.0E-07 M), 88 % of control; in test [9] (DAPK2, 1.0E-06 M), 118 % of control; in test [9] (DAPK2, 1.0E-07 M), 113 % of control. The “Residual activity, ROCK2” value in test [2] (assay conc. 1.0E-06 M) is on record as 88 % of control; in test [2] (assay conc. 1.0E-07 M), 100 % of control. Further, the “Residual activity, RPS6KA4” value is 93 % of control in test [3] (assay conc. 1.0E-06 M) and 95 % of control in [3] (assay conc. 1.0E-07 M). Further, the results for the “Residual activity, ZAP70” value in [4] (assay conc. 1.0E-06 M) and in [4] (assay conc. 1.0E-07 M) were 103 % of control and 111 % of control, respectively. For the same compound, the “Residual activity, VRK1” value in test [8] (assay conc. 1.0E-06 M) is recorded as 98 % of control; in [8] (assay conc. 1.0E-07 M) it was 109 % of control.
